We go through 2 compounds from patent publication US10017489B2, “Method for preparing benzopyran compound and application thereof in treating pulmonary fibrosis” (SHANGHAI JIAO TONG UNIVERSITY, priority 2013, dated 2018).

Where two headings read alike, the source gives them in different places.

The subject of the data set is Human lung fibroblasts, WI26 cell. Put plainly: Inhibitory effect on WI26 cells proliferation (CCK-8 assay). The data set is classed as cell-based. The following applies: for inhibition at 15 µg/mL / inhibition at 30 µg/mL: Homo sapiens, Fibroblast, CCK-8; for toxicity to cell: based on dynamics of the inhibitory effect in FIG. 2; for inhibition at 30 µg/mL: read-out: inhibition rate, WI26 cells proliferation. The procedure: Cells: Human lung fibroblasts, WI26 cell;
Methods: wherein WI26 cells at 70-80% confluent were trysinized by 0.25% trypsin solution and seeded in 96-well plates at an initial density of 1×10^4 cells/mL. A medium was replaced 24 h later by the fresh with 15 μg/ml compound 1 and 1/1000 DMSO (drug treatment group 1 and its control) or 30 μg/ml compound 2 and 1/1000 DMSO (drug treatment group 2 and its control), then the medium was refreshed and cell viability was measured by using a CCK-8 method at day 0, 1, 2, 3, 4, 5, 6, respectively. Proliferation measurement was applied by adding 100 μL complete medium and 10 μL CCK-8 solutions to each well and incubating for 1 h. OD values of each well were measured at a primary wavelength λ=450 nm by using a Microplate Spectrophotometer. Data are shown as means±standard deviation (SD) of three independent experiments, each performed in triplicate.
Background: Tetrazolium dyes change colour on reduction, which living cells bring about.

For the compound `CC(C)=CCC[C@]1(C)Oc2ccc(C(N)=O)cc2C[C@@H]1O` [compound 1, xiamenmycin C], the inhibition at 15 µg/mL (15 μg/ml compound 1, day one) is 13.8% and the inhibition at 15 µg/mL (15 μg/ml compound 1, day six) amounted to 38%. For the setting “normal human lung fibroblasts”, the toxicity to cell result is reported as “low toxicity”. Moreover, under “compound 1 at 15 μg/ml vs compound 2 at 30 μg/ml”, the “increase of inhibition compared with drug treatment group 2 (compound 2)” value was about 10%. For the same compound, the “effective concentration to inhibit normal human lung fibroblasts proliferation and activation” value (normal human lung fibroblasts) came out at 15 µg/mL.

Consider `CC(C)=CCC[C@]1(C)Oc2ccc(C(=O)N[C@H](C(=O)O)[C@@H](C)O)cc2C[C@@H]1O` [compound 2, Xiamenmycin, reference compound], for which the inhibition at 30 µg/mL (30 μg/ml compound 2, day one) was 10% and the inhibition at 30 µg/mL (30 μg/ml compound 2, day six) is 28.5%. Moreover, the toxicity to cell entry (normal human lung fibroblasts) was “low toxicity”.
